Legend:
LXR-beta = LXR-beta expression in UV-irradiated HaCaT cells (real time PCR); format: cell-based, human; settings: 10 uM, 24 h after UV, vs. DMSO (UV, 24 h) and GW3965 (UV, 24 h)
Protocol: (§1) HaCaT cells—a human immortalized keratinocyte cell line—were exposed to 15 J/m^2 UVB (254 nm) irradiation. Twenty four hours after irradiation, the cells were harvested and RNA isolated to assess the expression of LXR-alpha, LXR-beta, ABCA1, TNF-alpha, IL-6, and IL-8 genes. HaCaT cells were cultured in DMEM supplemented with 10% (v/v) fetal bovine serum, penicillin (100 U/mL), streptomycin ([…]) and glutamine (2 mM). […] The expressions of ABCA1, TNF-alpha, IL-6, IL-8, LXR-alpha, and LXR-beta were normalized according to glyceraldehyde-3-phosphate dehydrogenase (GAPDH) expression. The results of three independent assays, carried out in duplicate for each condition, are reported.

IL-8 = IL-8 expression in UV-irradiated HaCaT cells (real time PCR); format: cell-based, human; settings: 10 uM, 24 h after UV, normalized to GAPDH
Protocol: as §1

[1] = Plasma total cholesterol, HDL-cholesterol and triglyceride in C57BI mice after 5 days i.p. treatment; format: in vivo; settings: male C57BI mice; Compound I 10 mg/kg i.p. daily for 5 days
Protocol: Administration of synthetic LXR agonists such as T0901317 induces a marked increment of liver lipogenesis that leads to hepatic steatosis and plasma hypertriglyceridemia.
Male C57BI mice received daily for 5 days intraperitoneal injections containing either 10 mg Compound I/kg, or 5 mg T0901317/kg, or vehicle [90% (v/v) DMSO in apyrogenic sterile water]. On the sixth day of the assay, the animals were fasted for 4 h before decapitation. Blood plasma was obtained for the determination of total cholesterol, HDL-cholesterol and triglyceride contents. The livers were resected, and their weights and colors used as gross markers of increased liver triglyceride contents.

ABCA1 [2] = experiment: ABCA1 expression in HL-60 cells (real time PCR); format: cell-based, human; settings: 10 uM, 6 h
Protocol: (§2) To investigate the effects of Compounds I and II on the expression of three genes involved in lipid metabolism [fatty acid synthase (FAS); and two ATP-dependent cholesterol and phospholipid transporters, such as ABCA1 and ABCG1], human promyelocytic leukemia cells (HL-60) that endogenously express LXR-alpha and LXR-beta were incubated in the presence of either Comp I or Comp II (10 uM), or GW3965 (1 uM) for 6 h. mRNA levels for FAS, ABCA1 and ABCG1 were determined by real time PCR and results were normalized to GAPDH expression. HL-60 (10^6 cells/well) were cultured in RPMI medium supplemented with 5% (v/v) fetal bovine serum, penicillin (100 IU/mL), streptomycin (100 ug/mL) y cyprofloxacin (0.4 ug/mL). […] To obtain RNA, at the end of the incubation the cells were collected by centrifugation at 1,000 rpm for 2 min, washed with phosphate buffered saline, and lysed in 300 ul TRIZOL (Invitrogen). RNA samples were suspended in […] of RNAse free water, and their concentration determined (NanoDrop spectrophotometer). […] To obtain cDNA, 1 ug of total RNA was denatured by incubating for 5 min at 70° C., before the addition of a mixture containing 0.5 ug oligo-dT primers and 25 ng/ml of random primers (Invitrogen), 1.0 mM dNTPs (Invitrogen), and 200 U M-MLV reverse transcriptase (Promega); after this the mixture was retrotranscribed at 37° C. for 60 min, followed by an incubation at 95° C. for 5 min to inactivate the enzyme. For the real time PCR amplification (Stratagene Thermal Cycler), cDNA samples were diluted 1/5 to 1/10 depending on the target amplification product. Calibration curves were obtained by use of eight successive 1:2 sample dilutions. Amplifications were carried out in a 25 ul final volume (5 ul cDNA sample plus 20 ul of reaction mixture) in the presence of either 3, 4 or 5 mM MgCl2 (depending on the amplified sequence), 0.25 mM dNTPs (Invitrogen), 1.25 U Taq polymerase (Invitrogen), 1 μM of the specific primers according to the target amplification sequence, and 0.025 μl SYBR Green (Roche). […]

[3] = test system: fatty acid synthase (FAS); experiment: FAS expression in HL-60 cells (real time PCR); format: cell-based, human; settings: 10 uM, 6 h
Protocol: as §2

ABCA1 [4] = experiment: ABCA1 expression in HepG2 cells (real time PCR); format: cell-based, human; settings: 1 uM, 3 uM and 10 uM, 6 h
[5] = test system: fatty acid synthase (FAS or FASN); experiment: FASN expression in HepG2 cells (real time PCR); format: cell-based, human; settings: 1 uM, 3 uM and 10 uM, 6 h
Protocol: (§3) The cells were incubated for 6 h in the presence of either Compound I (10 uM), or Compound II (10 uM), or the commercial LXR agonist GW3965 (1 uM), or Vehicle [DMSO, 0.1% (v/v)]). To obtain RNA, at the end of the incubation the cells were collected by centrifugation at 1,000 rpm for 2 min, washed with phosphate buffered saline, and lysed in 300 ul TRIZOL (Invitrogen). RNA samples were suspended in ul of RNAse free water, and their concentration determined (NanoDrop spectrophotometer). The ratio of the absorbance at 260 and 280 nm was used to assess RNA purity of an RNA preparation, with a value of 1.8-2.0 indicating pure RNA. To obtain cDNA, 1 ug of total RNA was denatured by incubating for 5 min at 70° C., before the addition of a mixture containing 0.5 ug oligo-dT primers and 25 ng/ml of random primers (Invitrogen), 1.0 mM dNTPs (Invitrogen), and 200 U M-MLV reverse transcriptase (Promega); after this the mixture was retrotranscribed at 37° C. for 60 min, followed by an incubation at 95° C. for 5 min to inactivate the enzyme. For the real time PCR amplification (Stratagene Thermal Cycler), cDNA samples were diluted 1/5 to 1/10 depending on the target amplification product. Calibration curves were obtained by use of eight successive 1:2 sample dilutions. Amplifications were carried out in a 25 ul final volume (5 ul cDNA sample plus 20 ul of reaction mixture) in the presence of either 3, 4 or 5 mM MgCl2 (depending on the amplified sequence), 0.25 mM dNTPs (Invitrogen), 1.25 U Taq polymerase (Invitrogen), 1 μM of the specific primers according to the target amplification sequence, and 0.025 μl SYBR Green (Roche). Melting curves were used to assess the specificity of the amplification products. […]

SRBEP-1 = SRBEP-1 expression in HepG2 cells (real time PCR); format: cell-based, human; settings: 1 uM, 3 uM and 10 uM, 6 h
Protocol: as §3

ABCA1 [6] = experiment: ABCA1 expression in HaCaT cells (real time PCR); format: cell-based, human; settings: HaCaT; 10 uM; 24 h after UV irradiation
Protocol: as §1, with “HaCaT cells—a human immortalized keratinocyte cell line—were exposed to 15 J/m^2 UVB (254 nm) irradiation.” left out

ABCG1 = ABCG1 expression in HL-60 cells (real time PCR); format: cell-based, human; settings: 10 uM, 6 h
Protocol: as §2

TNF-alpha = TNF-alpha expression in UV-irradiated HaCaT cells (real time PCR); format: cell-based, human; settings: 10 uM, 24 h after UV (254 nm, 15 J/m^2), normalized to GAPDH
Protocol: as §1

CC[C@@H](C(C)C)[C@H](O)[C@@H](O)[C@@H](C)[C@H]1CC[C@H]2[C@@H]3CCC4=CC(=O)CC[C@]4(C)[C@H]3CC[C@]12C [Compound I, (22S,23S)-22,23-dihydroxystigmast-4-en-3-one]
LXR-beta expression (LXR-beta): stimulated LXR-beta expression even further | IL-8 expression versus DMSO-treated cells (IL-8): significantly lower | hypertriglyceridemia [1]: no signs | effect on ABCA1 expression (ABCA1 [2]): none of the test compounds significantly affected | FAS mRNA lower than in vehicle-treated cells [3]: ~40% | induction of ABCA1 expression (ABCA1 [4]): did not induce | induction of FASN expression [5]: did not induce | induction of SRBEP-1 expression (SRBEP-1): did not induce | ABCA1 expression versus DMSO-treated cells (ABCA1 [6]): marginally induced | effect on ABCG1 expression (ABCG1): none of the test compounds significantly affected | TNF-alpha expression versus DMSO-treated cells (TNF-alpha): significantly lower

CC[C@@H](C(C)C)[C@H](O)[C@@H](O)[C@@H](C)[C@H]1CC[C@H]2[C@@H]3CCC4=CC(=O)C=C[C@]4(C)[C@H]3CC[C@]12C [Compound II, (22S,23S)-22,23-dihydroxystigmasta-1,4-dien-3-one]
LXR-beta expression (LXR-beta): more modest than that observed for Compound I | IL-8 expression versus DMSO-treated cells (IL-8): significantly lower | effect on ABCA1 expression (ABCA1 [2]): none of the test compounds significantly affected | FAS mRNA lower than in vehicle-treated cells [3]: ~40% | induction of ABCA1 expression (ABCA1 [4]): did not induce | induction of FASN expression [5]: did not induce | induction of SRBEP-1 expression (SRBEP-1): did not induce | ABCA1 expression versus DMSO-treated cells (ABCA1 [6]): marginally induced | effect on ABCG1 expression (ABCG1): none of the test compounds significantly affected | TNF-alpha expression versus DMSO-treated cells (TNF-alpha): significantly lower
